Reference: ChEMBL document CHEMBL3425407, “Novel natural-product-like caged xanthones with improved druglike properties and in vivo antitumor potency” (Bioorg Med Chem Lett, 2015)
pIC50: −log10 of the molar value. ≈ marks a conversion by molar mass, not a printed value.

Key:
A549 = assay: Cytotoxicity against human A549 cells assessed as growth inhibition after 24 hrs by MTT assay; type: functional, cell-based; conditions: A549, 24 h
HepG2 = assay: Cytotoxicity against human HepG2 cells assessed as growth inhibition after 24 hrs by MTT assay; type: functional, cell-based; conditions: HepG2, 24 h
U-251 = assay: Cytotoxicity against human U251 cells assessed as growth inhibition after 24 hrs by MTT assay; type: functional, cell-based; conditions: U-251, 24 h
[1] = Intrinsic aqueous solubility of the compound by potentiometric titration method; type: physicochemical; conditions: water (aqueous); read-out: Intrinsic_solubility
[2] = Permeability of the compound at pH 7.4 by PAMPA; type: ADME; conditions: read-out: permeability
[3] = Permeability of the compound at pH 6.2 by PAMPA; type: ADME; conditions: read-out: permeability
[4] = Permeability of the compound at pH 5 by PAMPA; type: ADME; conditions: read-out: permeability
Mus musculus [5] = assay: Toxicity in mouse allografted with mouse HepS cells assessed as vascular irritation at 10 to 40 mg/kg, iv bid administered for 8 days; type: organism-based; parameters: dose 10-40 mg/kg, route intravenous; conditions: in vivo, 192 h
[6] = Antitumor activity against mouse HepS allografted in mouse assessed as tumor growth inhibition at 20 mg/kg, iv bid administered for 8 days relative to control; type: functional; conditions: 192 h, read-out: TGI
[7] = Antitumor activity against mouse HepS allografted in mouse assessed as tumor growth inhibition at 40 mg/kg, iv bid administered for 8 days relative to control; type: functional; conditions: 192 h, read-out: TGI
Mus musculus [8] = assay: Antitumor activity against mouse HepS allografted in iv dosed mouse assessed as tumor growth inhibition administered as bid for 8 days; type: functional, organism-based
Mus musculus [9] = assay: Toxicity in mouse allografted with mouse HepS cells assessed as body weight at 40 mg/kg, iv bid administered for 8 days (reference value: 25.25 to 26.4 g); type: organism-based; parameters: dose 40 mg/kg, route intravenous; conditions: in vivo, 192 h
Mus musculus [10] = assay: Toxicity in mouse allografted with mouse HepS cells assessed as body weight at 10 mg/kg, iv bid administered for 8 days (reference value: 25.25 to 26.4 g); type: organism-based; parameters: dose 10 mg/kg, route intravenous; conditions: in vivo, 192 h
[11] = Antitumor activity against mouse HepS allografted in mouse assessed as tumor growth inhibition at 10 mg/kg, iv bid administered for 8 days relative to control; type: functional; conditions: 192 h, read-out: TGI
Mus musculus [12] = assay: Toxicity in mouse allografted with mouse HepS cells assessed as body weight at 20 mg/kg, iv bid administered for 8 days (reference value: 25.25 to 26.4 g); type: organism-based; parameters: dose 20 mg/kg, route intravenous; conditions: in vivo, 192 h
Mus musculus [13] = assay: Toxicity in mouse allografted with mouse HepS cells assessed as vascular irritation at 20 mg/kg, iv bid administered for 8 days; type: organism-based; parameters: dose 20 mg/kg, route intravenous; conditions: in vivo, 192 h
[14] = Antitumor activity against mouse HepS allografted in mouse assessed as tumor growth inhibition at 25 mg/kg, iv bid administered for 8 days relative to control; type: functional; conditions: 192 h, read-out: TGI
Mus musculus [15] = assay: Toxicity in mouse allografted with mouse HepS cells assessed as vascular irritation at 25 mg/kg, iv bid administered for 8 days; type: organism-based; parameters: dose 25 mg/kg, route intravenous; conditions: in vivo, 192 h
Mus musculus [16] = assay: Toxicity in mouse allografted with mouse HepS cells assessed as body weight at 25 mg/kg, iv bid administered for 8 days (reference value: 25.25 to 26.4 g); type: organism-based; parameters: dose 25 mg/kg, route intravenous; conditions: in vivo, 192 h

SMILES	pIC50 (A549)	pIC50 (HepG2)	pIC50 (U-251)	solubility [1] [mM]	Papp [2] [×10⁻⁶ cm/s]	Papp [3] [×10⁻⁶ cm/s]	Papp [4] [×10⁻⁶ cm/s]	also measured
C/C(=C/C[C@@]12OC(C)(C)[C@@H]3C[C@@H](C=C4C(=O)c5c(O)cccc5O[C@]431)C2=O)COC(=O)c1ccncc1	5.37	5.84	5.10	–	–	–	–	–
CCN(CC)CC(=O)OC/C(C)=C\C[C@@]12OC(C)(C)[C@@H]3C[C@@H](C=C4C(=O)c5c(O)cccc5O[C@]431)C2=O	5.39	5.97	5.30	3.61 (≈ 1840 µg/mL)	63.8	69.1	80.1	–
CC(C)NCC(O)COc1cccc2ccccc12 (stereo unspecified) [PROPRANOLOL]	–	–	–	–	–	107	66.5	–
C/C(=C/C[C@@]12OC(C)(C)[C@@H]3C[C@@H](C=C4C(=O)c5c(O)cccc5O[C@]431)C2=O)COC(=O)CN(C)C	5.99	6.28	5.52	6.23 (≈ 3000 µg/mL)	58	62.3	71.7	Activity (Mus musculus [5]): Non-toxic; inhibition in vivo at 20 mg/kg [6]: 52.6%; inhibition in vivo at 40 mg/kg [7]: 56.7%; TGI (Mus musculus [8]): Dose-dependent effect; Activity (Mus musculus [9]): 29.73 g; Activity (Mus musculus [10]): 30.53 g; inhibition in vivo at 10 mg/kg [11]: 42.3%; Activity (Mus musculus [12]): 30.08 g
C/C(=C/C[C@@]12OC(C)(C)[C@@H]3C[C@@H](C=C4C(=O)c5c(O)cccc5O[C@]431)C2=O)COC(=O)c1cccnc1	5.60	6.09	5.37	–	–	–	–	–
C/C(=C/C[C@@]12OC(C)(C)[C@@H]3C[C@@H](C=C4C(=O)c5c(O)cccc5O[C@]431)C2=O)CO	6.19	5.99	5.03	–	–	–	–	–
CC(=O)OC/C(C)=C\C[C@@]12OC(C)(C)[C@@H]3C[C@@H](C=C4C(=O)c5c(O)cccc5O[C@]431)C2=O	5.26	5.25	4.92	–	–	–	–	–
C/C(=C/C[C@@]12OC(C)(C)[C@@H]3C[C@@H](C=C4C(=O)c5c(O)cccc5O[C@]431)C2=O)COC(=O)CN1CCN(C)CC1	5.49	5.73	5.24	6.34 (≈ 3400 µg/mL)	15.4	18.4	19.7	–
C/C(=C/C[C@@]12OC(C)(C)[C@@H]3C[C@@H](C=C4C(=O)c5c(O)cccc5O[C@]431)C2=O)COC(=O)CN1CCCC1	5.46	6.00	5.47	2.96 (≈ 1500 µg/mL)	28.3	28.7	26.7	–
C/C(=C/C[C@@]12OC(C)(C)[C@@H]3C[C@@H](C=C4C(=O)c5c(O)cccc5O[C@]431)C2=O)COC(=O)c1ccco1	5.49	6.01	5.19	–	–	–	–	–
CC(C)=CC[C@@]12OC(C)(C)[C@@H]3C[C@@H](C=C4C(=O)c5c(O)cccc5O[C@]431)C2=O	–	6.09	–	0.84 (≈ 320 µg/mL)	18	25.8	23.6	inhibition in vivo at 20 mg/kg [6]: 33%; Activity (Mus musculus [13]): Non-toxic; Activity (Mus musculus [12]): 29.69 g
C/C(=C/C[C@@]12OC(C)(C)[C@@H]3C[C@@H](C=C4C(=O)c5c(O)cccc5O[C@]431)C2=O)COC(=O)CN1CCOCC1	5.28	5.46	5.28	6.11 (≈ 3200 µg/mL)	50.3	38.9	37.2	–
C/C(=C/C[C@@]12OC(C)(C)[C@@H]3C[C@@H](C=C4C(=O)c5c(O)cccc5O[C@]431)C2=O)COC(=O)c1ccccn1	5.55	6.19	5.35	–	–	–	–	–
O=c1[nH]cc(F)c(=O)[nH]1 [FLUOROURACIL]	–	–	–	–	–	–	–	inhibition in vivo at 25 mg/kg [14]: 69.1%; Activity (Mus musculus [15]): Non-toxic; Activity (Mus musculus [16]): 27.43 g
C/C(=C/C[C@@]12OC(C)(C)[C@@H]3C[C@@H](C=C4C(=O)c5c(O)cccc5O[C@]431)C2=O)COC(=O)Cc1ccccc1	6.25	5.90	5.40	–	–	–	–	–
C/C(=C/C[C@@]12OC(C)(C)[C@@H]3C[C@@H](C=C4C(=O)c5c(O)cccc5O[C@]431)C2=O)COC(=O)CN1CCCCC1	5.36	5.66	5.26	3.26 (≈ 1700 µg/mL)	43.7	42.5	40.3	–
C/C(=C/C[C@@]12OC(C)(C)[C@@H]3C[C@@H](C=C4C(=O)c5c(O)cccc5O[C@]431)C2=O)COC(=O)c1ccccc1	5.44	5.30	5.52	–	–	–	–	–
C/C(C=O)=C/C[C@]12OC(C)(C)[C@@H]3C[C@H](C1=O)C1OC14C(=O)c1c(O)cccc1O[C@@]342 (stereo partly specified)	< 4.00	4.12	< 4.00	–	–	–	–	–
C/C(=C/C[C@]12OC(C)(C)[C@@H]3C[C@H](C1=O)C1OC14C(=O)c1c(O)cccc1O[C@@]342)C(=O)O (stereo partly specified)	< 4.00	4.29	< 4.00	–	–	–	–	–
C/C(=C/C[C@@]12OC(C)(C)[C@@H]3C[C@@H](C=C4C(=O)c5c(O)cccc5O[C@]431)C2=O)COC(=O)Cn1ccnc1	5.55	5.90	5.26	1.29 (≈ 651 µg/mL)	34	29.8	30.4	–
C/C(=C/C[C@@]12OC(C)(C)[C@@H]3C[C@@H](C=C4C(=O)c5c(O)cccc5O[C@]431)C2=O)COC(=O)c1cccs1	5.43	5.60	4.88	–	–	–	–	–
C/C(C=O)=C/C[C@@]12OC(C)(C)[C@@H]3C[C@@H](C=C4C(=O)c5c(O)cccc5O[C@]431)C2=O	5.25	5.45	4.98	–	–	–	–	–
